Values after ≈ are worked out from the molar mass of the structure shown.
Assays:
[1] = Selectivity index, ratio of IC50 for cytotoxicity against human HK-2 cells to MIC for antibacterial activity against Escherichia coli ATCC BAA-2523; type: toxicity, cell-based
Staphylococcus aureus [2] = assay: Antibacterial activity against methicillin resistant Staphylococcus aureus ATCC 33591 assessed as inhibition of bacterial growth incubated for 18 to 24 hrs by broth microdilution method; type: functional; conditions: time 18-24 hrs
[3] = Cytotoxicity against human HK-2 cells assessed as inhibition of cell growth incubated for 72 hrs by CCK-8 assay; type: toxicity, cell-based
Escherichia coli [4] = assay: Antibacterial activity against Escherichia coli clinical isolate 19-2 assessed as inhibition of bacterial growth incubated for 18 to 24 hrs by broth microdilution method; type: functional; conditions: time 18-24 hrs
Pseudomonas aeruginosa [5] = assay: Antibacterial activity against Pseudomonas aeruginosa ATCC 27853 assessed as inhibition of bacterial growth incubated for 18 to 24 hrs by broth microdilution method; type: functional; conditions: time 18-24 hrs
Acinetobacter baumannii [6] = assay: Antibacterial activity against carbapenem resistant Acinetobacter baumannii clinical isolate 19-8 assessed as inhibition of bacterial growth incubated for 18 to 24 hrs by broth microdilution method; type: functional; conditions: time 18-24 hrs
[7] = test system: Staphylococcus epidermidis; assay: Antibacterial activity against methicillin resistant Staphylococcus epidermidis clinical isolate 19-6 assessed as inhibition of bacterial growth incubated for 18 to 24 hrs by broth microdilution method; type: functional; conditions: time 18-24 hrs
Klebsiella pneumoniae [8] = assay: Antibacterial activity against KPC producing Klebsiella pneumoniae ATCC BAA-1705 assessed as inhibition of bacterial growth incubated for 18 to 24 hrs by broth microdilution method; type: functional; conditions: time 18-24 hrs
Klebsiella pneumoniae [9] = assay: Antibacterial activity against carbapenem resistant Klebsiella pneumoniae clinical isolate 19-17 assessed as inhibition of bacterial growth incubated for 18 to 24 hrs by broth microdilution method; type: functional; conditions: time 18-24 hrs
Escherichia coli [10] = assay: Antibacterial activity against Escherichia coli NCTC 13353 assessed as inhibition of bacterial growth incubated for 18 to 24 hrs by broth microdilution method; type: functional; conditions: time 18-24 hrs
Escherichia coli [11] = assay: Antibacterial activity against KPC producing Escherichia coli ATCC BAA-2340 assessed as inhibition of bacterial growth incubated for 18 to 24 hrs by broth microdilution method; type: functional; conditions: time 18-24 hrs
[12] = test system: Staphylococcus epidermidis; assay: Antibacterial activity against methicillin resistant Staphylococcus epidermidis clinical isolate 19-5 assessed as inhibition of bacterial growth incubated for 18 to 24 hrs by broth microdilution method; type: functional; conditions: time 18-24 hrs
Pseudomonas aeruginosa [13] = assay: Antibacterial activity against Pseudomonas aeruginosa clinical isolate 19-1 assessed as inhibition of bacterial growth incubated for 18 to 24 hrs by broth microdilution method; type: functional; conditions: time 18-24 hrs
Klebsiella pneumoniae [14] = assay: Antibacterial activity against carbapenem resistant Klebsiella pneumoniae clinical isolate 19-15 assessed as inhibition of bacterial growth incubated for 18 to 24 hrs by broth microdilution method; type: functional; conditions: time 18-24 hrs
Pseudomonas aeruginosa [15] = assay: Antibacterial activity against carbapenem resistant Pseudomonas aeruginosa clinical isolate 17-1 assessed as inhibition of bacterial growth incubated for 18 to 24 hrs by broth microdilution method; type: functional; conditions: time 18-24 hrs
Staphylococcus aureus [16] = assay: Antibacterial activity against Staphylococcus aureus ATCC 29213 assessed as inhibition of bacterial growth incubated for 18 to 24 hrs by broth microdilution method; type: functional; conditions: time 18-24 hrs
Escherichia coli [17] = assay: Antibacterial activity against Escherichia coli ATCC BAA-2523 assessed as inhibition of bacterial growth incubated for 18 to 24 hrs by broth microdilution method; type: functional; conditions: time 18-24 hrs
Pseudomonas aeruginosa [18] = assay: Antibacterial activity against carbapenem resistant Pseudomonas aeruginosa clinical isolate 19-3 assessed as inhibition of bacterial growth incubated for 18 to 24 hrs by broth microdilution method; type: functional; conditions: time 18-24 hrs
Acinetobacter baumannii [19] = assay: Antibacterial activity against oxacillinase-27 producing Acinetobacter baumannii NCTC 13304 assessed as inhibition of bacterial growth incubated for 18 to 24 hrs by broth microdilution method; type: functional; conditions: time 18-24 hrs

Row | SMILES | selectivity ratio [1] | MIC (Staphylococcus aureus [2]) | IC50 at 72 h [3] | MIC (Escherichia coli [4]) | MIC (Pseudomonas aeruginosa [5]) | MIC (Acinetobacter baumannii [6]) | MIC [7] | MIC (Klebsiella pneumoniae [8]) | MIC (Klebsiella pneumoniae [9]) | MIC (Escherichia coli [10]) | MIC (Escherichia coli [11]) | MIC [12] | MIC (Pseudomonas aeruginosa [13]) | MIC (Klebsiella pneumoniae [14]) | MIC (Pseudomonas aeruginosa [15]) | MIC (Staphylococcus aureus [16]) | MIC (Escherichia coli [17]) | MIC (Pseudomonas aeruginosa [18]) | MIC (Acinetobacter baumannii [19])
1 | CCCCCCCCCC(=O)N[C@H](CCN)C(=O)N[C@H]1CCNC(=O)[C@H](CC(=O)O)NC(=O)[C@H](CCN)NC(=O)[C@H](CCN)NC(=O)[C@H](CC(C)C)NC(=O)[C@@H](CC(C)C)NC(=O)[C@H](CCN)NC1=O | < 5.4 | > 64 µg/mL | 347 µg/mL (≈ 349 µM) | > 64 µg/mL | > 64 µg/mL | > 64 µg/mL | > 64 µg/mL | > 64 µg/mL | > 64 µg/mL | > 64 µg/mL | > 64 µg/mL | > 64 µg/mL | > 64 µg/mL | > 64 µg/mL | > 64 µg/mL | > 64 µg/mL | > 64 µg/mL | > 64 µg/mL | > 64 µg/mL
2 | CCCCCCCCCC(=O)N[C@H](CCN)C(=O)N[C@H]1CCNC(=O)[C@H](CO)NC(=O)[C@H](CCN)NC(=O)[C@H](CCN)NC(=O)[C@H](Cc2ccccc2)NC(=O)[C@@H](CC(C)C)NC(=O)[C@H](CCN)NC1=O | 9.1 | > 64 µg/mL | 146 µg/mL (≈ 145 µM) | 16 µg/mL (≈ 16 µM) | 64 µg/mL (≈ 63.9 µM) | > 64 µg/mL | 2 µg/mL (≈ 2 µM) | 8 µg/mL (≈ 7.98 µM) | 64 µg/mL (≈ 63.9 µM) | 32 µg/mL (≈ 31.9 µM) | 16 µg/mL (≈ 16 µM) | 4 µg/mL (≈ 3.99 µM) | 16 µg/mL (≈ 16 µM) | 32 µg/mL (≈ 31.9 µM) | 64 µg/mL (≈ 63.9 µM) | 64 µg/mL (≈ 63.9 µM) | 16 µg/mL (≈ 16 µM) | 16 µg/mL (≈ 16 µM) | > 64 µg/mL
3 | CCCCCCCCCC(=O)N[C@H](CCN)C(=O)N[C@H]1CCNC(=O)[C@H]([C@@H](C)O)NC(=O)[C@H](CCN)NC(=O)[C@H](CCN)NC(=O)[C@H](CC(C)C)NC(=O)[C@@H](Cc2ccc(C(C)(C)C)cc2)NC(=O)[C@H](CCN)NC1=O | 15.9 | 4 µg/mL (≈ 3.73 µM) | 15.9 µg/mL (≈ 14.8 µM) | 2 µg/mL (≈ 1.86 µM) | 2 µg/mL (≈ 1.86 µM) | 16 µg/mL (≈ 14.9 µM) | 2 µg/mL (≈ 1.86 µM) | 2 µg/mL (≈ 1.86 µM) | 2 µg/mL (≈ 1.86 µM) | 4 µg/mL (≈ 3.73 µM) | 2 µg/mL (≈ 1.86 µM) | 0.5 µg/mL (≈ 0.466 µM) | 4 µg/mL (≈ 3.73 µM) | 4 µg/mL (≈ 3.73 µM) | 4 µg/mL (≈ 3.73 µM) | 4 µg/mL (≈ 3.73 µM) | 1 µg/mL (≈ 0.932 µM) | 2 µg/mL (≈ 1.86 µM) | 16 µg/mL (≈ 14.9 µM)
4 | CCCCCCC[C@@H](O)CC(=O)N[C@H](CO)C(=O)N[C@H](CCN)C(=O)N[C@H]1CCNC(=O)[C@H](CC(C)C)NC(=O)[C@H](CCN)NC(=O)[C@H](CCN)NC(=O)[C@H](Cc2ccccc2)NC(=O)[C@@H](CC(C)C)NC(=O)[C@H](CCN)NC1=O | 13.9 | 64 µg/mL (≈ 56.6 µM) | 55.4 µg/mL (≈ 49 µM) | 16 µg/mL (≈ 14.1 µM) | 2 µg/mL (≈ 1.77 µM) | 16 µg/mL (≈ 14.1 µM) | 8 µg/mL (≈ 7.07 µM) | 2 µg/mL (≈ 1.77 µM) | 8 µg/mL (≈ 7.07 µM) | 16 µg/mL (≈ 14.1 µM) | 4 µg/mL (≈ 3.54 µM) | 2 µg/mL (≈ 1.77 µM) | 8 µg/mL (≈ 7.07 µM) | 4 µg/mL (≈ 3.54 µM) | 2 µg/mL (≈ 1.77 µM) | 64 µg/mL (≈ 56.6 µM) | 4 µg/mL (≈ 3.54 µM) | 2 µg/mL (≈ 1.77 µM) | 8 µg/mL (≈ 7.07 µM)
5 | CCCCCCCCCC(=O)N[C@@H](C(=O)N[C@H]1CCNC(=O)[C@H]([C@@H](C)O)NC(=O)[C@H](CCN)NC(=O)[C@H](CCN)NC(=O)[C@H](CC(C)C)NC(=O)[C@@H](CC(C)C)NC(=O)[C@H](CCN)NC1=O)[C@H](C)O | 3.8 | > 64 µg/mL | 240 µg/mL (≈ 244 µM) | 32 µg/mL (≈ 32.5 µM) | 8 µg/mL (≈ 8.14 µM) | > 64 µg/mL | 64 µg/mL (≈ 65.1 µM) | 32 µg/mL (≈ 32.5 µM) | 64 µg/mL (≈ 65.1 µM) | 64 µg/mL (≈ 65.1 µM) | 64 µg/mL (≈ 65.1 µM) | 16 µg/mL (≈ 16.3 µM) | 16 µg/mL (≈ 16.3 µM) | 64 µg/mL (≈ 65.1 µM) | 32 µg/mL (≈ 32.5 µM) | > 64 µg/mL | 64 µg/mL (≈ 65.1 µM) | 32 µg/mL (≈ 32.5 µM) | 64 µg/mL (≈ 65.1 µM)
6 | CCCCCCCCC(=O)N[C@H](CCN)C(=O)N[C@H]1CCNC(=O)[C@H](CC(C)C)NC(=O)[C@H](CCN)NC(=O)[C@H](CCN)NC(=O)[C@H](CC(C)C)NC(=O)[C@@H](CC(C)C)NC(=O)[C@H](CCN)NC1=O | 4.8 | > 64 µg/mL | 77.4 µg/mL (≈ 79 µM) | 32 µg/mL (≈ 32.6 µM) | 1 µg/mL (≈ 1.02 µM) | 8 µg/mL (≈ 8.16 µM) | 16 µg/mL (≈ 16.3 µM) | 2 µg/mL (≈ 2.04 µM) | 16 µg/mL (≈ 16.3 µM) | 16 µg/mL (≈ 16.3 µM) | 2 µg/mL (≈ 2.04 µM) | 4 µg/mL (≈ 4.08 µM) | 4 µg/mL (≈ 4.08 µM) | 16 µg/mL (≈ 16.3 µM) | 2 µg/mL (≈ 2.04 µM) | > 64 µg/mL | 16 µg/mL (≈ 16.3 µM) | 4 µg/mL (≈ 4.08 µM) | 8 µg/mL (≈ 8.16 µM)

From ChEMBL document CHEMBL5380795, “Design, Synthesis, and Bioactivity Investigation of Cyclic Lipopeptide Antibiotics Containing Eight to Nine Amino Acids” (J Med Chem, 2023)
